Tests used:
[1] = Metabolic stability in human plasma assessed as half life and measured upto 240 mins by LC-MS/MS analysis; assay type: ADME, cell-free
[2] = Microsomal stability in human liver microsomes assessed as intrinsic clearance and measured upto 60 mins in presence of NADPH by LC-MS/MS analysis; assay type: ADME, Microsome; conditions: read-out: CLH
[3] = Metabolic stability in human hepatocytes assessed as intrinsic clearance and measured upto 60 mins in presence of NADPH by LC-MS/MS analysis; assay type: ADME, cell-based, Hepatocyte; conditions: read-out: CLH

half-life [1] | Compound | CLint scaled [2] | CLint scaled [3]
1.98 h | O=C1CCC(N2Cc3ccccc3C2=O)C(=O)N1 (configuration not stated) | < 6.1 mL/min/kg | < 9.6 mL/min/kg
 | O=C1CCC(N2Cc3ccc(S(=O)(=O)F)cc3C2=O)C(=O)N1 (configuration not stated) | 13.7 mL/min/kg | < 9.6 mL/min/kg
 | O=C1CCC(N2Cc3ccc(OS(=O)(=O)F)cc3C2=O)C(=O)N1 (configuration not stated) | < 6.1 mL/min/kg | < 9.6 mL/min/kg

From ChEMBL document CHEMBL5223136, “Covalent drugs targeting histidine - an unexploited opportunity?” (RSC Med Chem, 2022)
